Experiments:
MDA-MB-231 = test: Antitumor activity against human MDA-MB-231 cells xenografted in SCID/Beige mouse assessed as tumor volume at 25 mg/kg, qd measured on day 30 (reference value: 49.48 +/- 3.44 mm3); assay type: functional
[1] = molecular target: T1, Dual specificity mitogen-activated protein kinase kinase 5 (Homo sapiens, UniProt Q13163); test: Activation of MEK5 in EGF-stimulated human MDA-MB-231 cells assessed as increase in pERK5 levels preincubated for 30 mins followed by EGF stimulation measured after 15 mins by Western blot analysis relative to control; assay type: cell-based; set-up: concentration or dose not given beside the values; conditions: mda-mb-231, 0.25 h
T1 sequence (Q13163 whole entry): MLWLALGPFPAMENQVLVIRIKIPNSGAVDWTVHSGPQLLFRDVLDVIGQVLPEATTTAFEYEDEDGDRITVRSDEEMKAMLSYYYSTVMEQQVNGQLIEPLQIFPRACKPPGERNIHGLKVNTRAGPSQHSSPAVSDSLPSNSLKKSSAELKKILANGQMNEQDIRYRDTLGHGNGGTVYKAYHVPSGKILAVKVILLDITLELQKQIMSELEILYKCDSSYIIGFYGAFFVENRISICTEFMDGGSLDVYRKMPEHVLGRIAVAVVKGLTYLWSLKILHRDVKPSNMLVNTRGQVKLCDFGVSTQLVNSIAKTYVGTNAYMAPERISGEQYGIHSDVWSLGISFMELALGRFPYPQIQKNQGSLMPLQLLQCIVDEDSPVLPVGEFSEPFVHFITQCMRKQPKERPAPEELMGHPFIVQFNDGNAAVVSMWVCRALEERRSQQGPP

[2] = molecular target: Dual specificity mitogen-activated protein kinase kinase; MEK1/2 (Homo sapiens, UniProt P36507+Q02750); test: Activation of MEK1/2 in EGF-stimulated human MDA-MB-231 cells assessed as increase in pERK1/2 levels preincubated for 30 mins followed by EGF stimulation measured after 15 mins by Western blot analysis relative to control; assay type: cell-based; conditions: mda-mb-231, 0.25 h

SMILES	Activity [1]	Activity [2]	other results
NC(=O)c1ccc(F)c(F)c1Nc1ccc(I)cc1F			Activity (MDA-MB-231): 29.1 mm3
O=C(c1ccc(F)c(F)c1Nc1ccc(I)cc1F)N1CCNCC1	20%		
CN(c1ccc(I)cc1F)c1c(C(N)=O)ccc(F)c1F	20%		
CCN(CC)C(=O)c1ccc(F)c(F)c1Nc1ccc(I)cc1F	20%		
O=C(O)c1ccc(F)c(F)c1Nc1ccccc1F	20%		
CN1CCN(C(=O)c2ccc(F)c(F)c2N(C)c2ccc(I)cc2F)CC1		20%	
NC(=O)c1ccccc1Nc1ccccc1F		20%	
CN1CCN(C(=O)c2ccc(F)c(F)c2Nc2ccccc2)CC1		20%	
O=C(O)c1ccc(F)c(F)c1Nc1ccccc1	20%		

Source: ChEMBL document CHEMBL4118214, “Structure activity relationships of anthranilic acid-based compounds on cellular and in vivo mitogen activated protein kinase-5 signaling pathways” (Bioorg Med Chem Lett, 2018)
